Assay results published in patent US20240041042A1, “1-(PYRIDYL)-5-AZINYLPYRAZOLE DERIVATIVES, AND THEIR USE FOR CONTROL OF UNDESIRED PLANT GROWTH” (Bayer Aktiengesellschaft, priority 2020, published 2024).
Like-named read-outs stand apart in the source and are kept apart here. Values belong to the molecule of their own block, whether it stands above or below them.

Legend:
Format in all cases: in vivo
[1] = system: Verconica persica (VERPE); experiment: Post-emergence herbicidal action against VERPE
Procedure, shortened: (§1)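 Greenhouse plants sprayed at the one-leaf stage, 2–3 weeks after sowing, with WP or EC formulations plus 0.5% additive at 600 l/ha water. Activity rated visually after about 3 weeks versus untreated controls (100% = dead, 0% = like control), at 320 g/ha or lower.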

Avena fatua (AVEFA) [2] = experiment: Pre-emergence herbicidal action against AVEFA; conditions: visual scoring after about 3 weeks vs untreated controls
Procedure, shortened: (§2)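 Seeds sown in pots and covered with soil; WP or EC formulations sprayed onto the soil surface at 600 l/ha water with 0.5% additive, at 320 g/ha or lower. Greenhouse growth for about 3 weeks, then visual scoring as % effect against untreated controls (100% = plants dead).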

Viola tricolor (VIOTR) [3] = experiment: Post-emergence herbicidal action against VIOTR
Procedure, shortened: as §1

[4] = system: Echinochloa crus-galli (ECHCG); experiment: Pre-emergence herbicidal action against ECHCG
Procedure, shortened: as §2

[5] = system: Polygonum convolvulus (POLCO); experiment: Pre-emergence herbicidal action against POLCO; conditions: dosage 320 g/ha
Procedure, shortened: as §2

[6] = system: Matricaria inodora (MATIN); experiment: Pre-emergence herbicidal action against MATIN; conditions: dosage 320 g/ha
Procedure, shortened: as §2

[7] = system: Amaranthus retroflexus (AMARE); experiment: Post-emergence herbicidal action against AMARE
Procedure, shortened: as §1

[8] = system: Echinochloa crus-galli (ECHCG); experiment: Post-emergence herbicidal action against ECHCG
Procedure, shortened: as §1

Lolium rigidum (LOLRI) [9] = experiment: Post-emergence herbicidal action against LOLRI; conditions: dosage 320 g/ha
Procedure, shortened: as §1

Avena fatua (AVEFA) [10] = experiment: Post-emergence herbicidal action against AVEFA; conditions: visual rating about 3 weeks after treatment
Procedure, shortened: as §1

[11] = system: Alopecurus myosuroides (ALOMY); experiment: Pre-emergence herbicidal action against ALOMY; conditions: scored visually after about 3 weeks, 100% = plants have died
Procedure, shortened: as §2

Viola tricolor (VIOTR) [12] = experiment: Pre-emergence herbicidal action against VIOTR
Procedure, shortened: as §2

[13] = system: Alopecurus myosuroides (ALOMY); experiment: Post-emergence herbicidal action against ALOMY; conditions: visual rating about 3 weeks after treatment vs untreated controls (100% = plants have died, 0% = like control plants)
Procedure, shortened: as §1

[14] = system: Amaranthus retroflexus (AMARE); experiment: Pre-emergence herbicidal action against AMARE; conditions: visual scoring after about 3 weeks vs untreated controls
Procedure, shortened: as §2

Setaria viridis (SETVI) [15] = experiment: Pre-emergence herbicidal action against SETVI
Procedure, shortened: as §2

[16] = system: Pharbitis purpurea (PHBPU); experiment: Post-emergence herbicidal action against PHBPU
Procedure, shortened: as §1

[17] = system: Abutilon theophrasti (ABUTH); experiment: Post-emergence herbicidal action against ABUTH; conditions: visual rating about 3 weeks after treatment vs untreated controls (100% = plants have died, 0% = like control plants)
Procedure, shortened: as §1

[18] = system: Verconica persica (VERPE); experiment: Pre-emergence herbicidal action against VERPE; conditions: dosage 320 g/ha
Procedure, shortened: as §2

[19] = system: Abutilon theophrasti (ABUTH); experiment: Pre-emergence herbicidal action against ABUTH; conditions: Dosage column 320 g/ha (title prints 3200 g/ha); scored visually after about 3 weeks; 100% = plants have died
Description: Seeds of monocotyledonous and dicotyledonous weed plants and crop plants are placed in plastic or organic planting pots and covered with soil. The compounds of the invention, formulated in the form of wettable powders (WP) or as emulsion concentrates (EC), are then applied to the surface of the covering soil as aqueous suspension or emulsion with addition of 0.5% additive at a water application rate equivalent to 600 l/ha. After the treatment, the pots are placed in a greenhouse and kept under good growth conditions for the trial plants. After about 3 weeks, the effect of the preparations is scored visually in comparison with untreated controls as percentages. For example, 100% activity=the plants have died, 0% activity=like control plants.
Tables A1 to A13 below show the effects of selected compounds of the general formula (I) on various harmful plants and at an application rate corresponding to 320 g/ha or lower, which were obtained by the experimental procedure mentioned above. The appendices “a”, “b” and “c” give differentiation by dosage used with otherwise the same harmful plants tested.

Setaria viridis (SETVI) [20] = experiment: Post-emergence herbicidal action against SETVI
Procedure, shortened: as §1

Oryza sativa (ORYSA) [21] = conditions: crop plant compatibility, effect in comparison to untreated controls
Procedure, shortened: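 Foliar application at the one-leaf stage: WP/EC formulation, 0.5% additive, 600 l/ha water. Greenhouse-grown in sandy loam. Endpoint is visual % injury relative to untreated controls at about 3 weeks.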

Lolium rigidum (LOLRI) [22] = experiment: Pre-emergence herbicidal action against LOLRI
Procedure, shortened: as §2

[23] = system: Pharbitis purpurea (PHBPU); experiment: Pre-emergence herbicidal action against PHBPU; conditions: dosage 320 g/ha
Procedure, shortened: as §2

[24] = system: Digitaria sanguinalis (DIGSA); experiment: Post-emergence herbicidal action against DIGSA; conditions: visual rating about 3 weeks after treatment
Procedure, shortened: as §1

Zea mays (ZEAMX) = conditions: pre-emergence, 80 g/ha, crop plant compatibility, in comparison to untreated controls
Procedure, shortened: (§3)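 Crop injury rated visually in percent against untreated plants roughly 3 weeks after treatment (0% no effect, 100% plants dead). Compounds, as WP or EC with 0.5% additive in 600 l/ha water, were applied to the covering soil right after sowing; greenhouse growth. Suffixes a, b, c denote different dosages.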

Oryza sativa (ORYSA) [25] = conditions: pre-emergence, 80 g/ha, crop plant compatibility, in comparison to untreated controls
Procedure, shortened: as §3

[26] = system: Polygonum convolvulus (POLCO); experiment: Post-emergence herbicidal action against POLCO
Procedure, shortened: as §1

[27] = system: Digitaria sanguinalis (DIGSA); experiment: Pre-emergence herbicidal action against DIGSA; conditions: dosage 320 g/ha
Procedure, shortened: as §2

Post-emergence action against ORYSA in % (Oryza sativa (ORYSA) [21]; 80 g/ha): 0%
SMILES: COC(=O)[C@@H](C)Oc1nn(-c2ccnc(Cl)c2)c(-c2ccc(F)nc2)c1Br [III-22]
Post-emergence action against VERPE in % ([1]; 320 g/ha, VERPE): 90% | Post-emergence action against VERPE in % ([1]; dosage 80 g/ha): 80% | Pre-emergence action against AVEFA in % (Avena fatua (AVEFA) [2]; 80 g/ha): 80% | Pre-emergence action against AVEFA in % (Avena fatua (AVEFA) [2]; 320 g/ha): 100% | Post-emergence action against VIOTR in % (Viola tricolor (VIOTR) [3]; 80 g/ha): 90% | Post-emergence action against VIOTR in % (Viola tricolor (VIOTR) [3]; 320 g/ha): 90% | Pre-emergence action against ECHCG in % ([4]; dosage 80 g/ha): 100% | Pre-emergence action against ECHCG in % ([4]; dosage 320 g/ha): 100% | Pre-emergence action against POLCO in % [5]: 100% | Pre-emergence action against MATIN in % [6]: 100% | Post-emergence action against AMARE in % ([7]; 80 g/ha, visual rating about 3 weeks after treatment vs untreated controls (100% = plants have died, 0% = like control plants)): 90% | Post-emergence action against AMARE in % ([7]; 320 g/ha, visual rating about 3 weeks after treatment): 90% | Post-emergence action against ECHCG in % ([8]; dosage 80 g/ha): 100% | Post-emergence action against ECHCG in % ([8]; dosage 320 g/ha): 100% | Post-emergence action against LOLRI in % (Lolium rigidum (LOLRI) [9]): 100% | Post-emergence action against AVEFA in % (Avena fatua (AVEFA) [10]; 80 g/ha): 100% | Post-emergence action against AVEFA in % (Avena fatua (AVEFA) [10]; 320 g/ha): 100% | Pre-emergence action against ALOMY ([11]; 80 g/ha): 100% | Pre-emergence action against ALOMY ([11]; 320 g/ha): 100% | Pre-emergence action against VIOTR in % (Viola tricolor (VIOTR) [12]; 320 g/ha, Viola tricolor): 100% | Pre-emergence action against VIOTR in % (Viola tricolor (VIOTR) [12]; dosage 80 g/ha): 90% | Post-emergence action against ALOMY in % ([13]; 80 g/ha): 100% | Post-emergence action against ALOMY in % ([13]; 320 g/ha): 100% | Pre-emergence action against AMARE in % ([14]; 80 g/ha): 90% | Pre-emergence action against AMARE in % ([14]; 320 g/ha): 100% | Pre-emergence action against SETVI in % (Setaria viridis (SETVI) [15]; dosage 80 g/ha): 100% | Pre-emergence action against SETVI in % (Setaria viridis (SETVI) [15]; dosage 320 g/ha): 100% | Post-emergence action against PHBPU in % ([16]; dosage 320 g/ha): 80% | Post-emergence action against ABUTH in % ([17]; 80 g/ha): 90% | Post-emergence action against ABUTH in % ([17]; 320 g/ha): 90% | Pre-emergence action against VERPE in % [18]: 100% | Pre-emergence action against ABUTH [19]: 100% | Post-emergence action against SETVI in % (Setaria viridis (SETVI) [20]; dosage 80 g/ha): 100% | Post-emergence action against SETVI in % (Setaria viridis (SETVI) [20]; dosage 320 g/ha): 100% | Pre-emergence action against LOLRI in % (Lolium rigidum (LOLRI) [22]; dosage 80 g/ha): 100% | Pre-emergence action against LOLRI in % (Lolium rigidum (LOLRI) [22]; dosage 320 g/ha): 100%

Pre-emergence action against ZEAMX in % (Zea mays (ZEAMX)): 20% | Pre-emergence action against ORYSA in % (Oryza sativa (ORYSA) [25]): 10% | Post-emergence action against ORYSA in % (Oryza sativa (ORYSA) [21]; 80 g/ha): 10% | Post-emergence action against ORYSA in % (Oryza sativa (ORYSA) [21]; 320 g/ha): 20%
SMILES: COC(=O)COc1nn(-c2ncccc2C(F)(F)F)c(-c2cncc(F)c2)c1I [Example I-223]
Post-emergence action against VERPE in % ([1]; 320 g/ha, VERPE): 80% | Pre-emergence action against AVEFA in % (Avena fatua (AVEFA) [2]; 320 g/ha): 100% | Post-emergence action against VIOTR in % (Viola tricolor (VIOTR) [3]; 320 g/ha): 80% | Pre-emergence action against ECHCG in % ([4]; dosage 320 g/ha): 80% | Pre-emergence action against POLCO in % [5]: 80% | Post-emergence action against ECHCG in % ([8]; dosage 80 g/ha): 80% | Post-emergence action against ECHCG in % ([8]; dosage 320 g/ha): 90% | Pre-emergence action against PHBPU in % [23]: 80% | Post-emergence action against DIGSA in % ([24]; 80 g/ha): 80% | Post-emergence action against DIGSA in % ([24]; 320 g/ha): 90% | Post-emergence action against POLCO in % ([26]; dosage 80 g/ha): 80% | Post-emergence action against POLCO in % ([26]; dosage 320 g/ha): 80% | Post-emergence action against AVEFA in % (Avena fatua (AVEFA) [10]; 320 g/ha): 80% | Pre-emergence action against ALOMY ([11]; 320 g/ha): 90% | Pre-emergence action against VIOTR in % (Viola tricolor (VIOTR) [12]; 320 g/ha, Viola tricolor): 100% | Pre-emergence action against VIOTR in % (Viola tricolor (VIOTR) [12]; dosage 80 g/ha): 90% | Post-emergence action against ALOMY in % ([13]; 320 g/ha): 80% | Pre-emergence action against AMARE in % ([14]; 320 g/ha): 90% | Post-emergence action against PHBPU in % ([16]; dosage 80 g/ha): 80% | Post-emergence action against PHBPU in % ([16]; dosage 320 g/ha): 80% | Post-emergence action against ABUTH in % ([17]; 320 g/ha): 80% | Pre-emergence action against DIGSA in % [27]: 80% | Pre-emergence action against VERPE in % [18]: 80% | Post-emergence action against SETVI in % (Setaria viridis (SETVI) [20]; dosage 320 g/ha): 80%
